Series [1] is described as follows: Preliminary mouse pharmacokinetic study. As to conditions: plasma, po, 20 mg/kg.
Series [2] relates to M. tuberculosis H37Rv. As to the kind of experiment: In vivo acute M. tuberculosis H37Rv infection assay in mice. The conditions noted are these: for logCFU/lung: BALB/c mice infected with M. tuberculosis H37Rv, 20 mg/kg, after 30 days of treatment, mean ± SD, n = 5. More on the design: species or system Mycobacterium tuberculosis.
The test system of series [3] is M. tuberculosis H37Rv. Description: Microplate Alamar Blue Assay (MABA), in vitro antituberculosis activity (MIC). As to conditions: Mycobacterium tuberculosis, 96-well plate. Format: cell-based. (In general: Resazurin is reduced to fluorescent resorufin, in cell work by metabolically active cells.)
Series [4] in a line: Cytotoxicity using Vero cells. As to conditions: African green monkey, Vero cells.
The test system of a further series is Vero cells. As to the kind of experiment: Cytotoxicity using Vero cells.
The conditions of series [5]: as compared to CFZ.
The nature of series [6]: Preliminary multidose in vivo toxicity study in mice. As to conditions: oral 500 mg/kg once daily for 4 days; for Safety in mice (in words): 7-day observation; for Number of animals that survived/Total number of animals: followed by 7-day observation.
Where [7] appears, read: mouse model infected by M. tuberculosis H37Rv.

Each structure is given as a SMILES string. ≈ marks a conversion by molar mass, not a printed value.

Broadly, the AUC(0-t) is the area under the concentration-time curve up to a stated or last time point. For orientation: Cmax means the peak of the concentration-time curve. By Tmax is commonly meant the time from dosing to the highest level. Usually half-life stands for the time needed for the level to fall by half in the phase considered. Read a low half-life as rapid decline. As usually defined, the MIC is the lowest concentration that inhibits growth of the organism. High values mean a need for much substance, low ones inhibition by little substance. What is called IC50 is the point on the concentration scale where inhibition reaches its midpoint. Read a low IC50 as greater potency. In general, melting point refers to the temperature of the solid-liquid transition.

As to `CC(C)/N=c1\cc2n(-c3ccc(Cl)cc3)c3ccccc3nc-2cc1Nc1ccc(Cl)cc1` [CFZ, Clofazimine, reference compound], in series [1], the exposure AUC(0-t) was determined as 8220 ng·h/mL, the highest level (Cmax) was 470 ng/mL, the Tmax was 2 h and the half-life is 27.1 h. The compound also yielded a logCFU/lung in the series with M. tuberculosis H37Rv [2] of 4.29 ± 0.58. Further, in the series on M. tuberculosis H37Rv [3], inhibition of growth (MIC) required 0.12 µg/mL (≈ 0.253 µM). In series [4], it took 68.6 µg/mL (≈ 145 µM) to reach half-maximal inhibition (IC50). In the series with Vero cells, the “SI (selectivity index IC50/MIC)” value is listed as 572.
For `COc1ncccc1Nc1cc2nc3ccccc3n(-c3cccc(F)c3)c-2cc1=NC(C)C` [Compound 8, 5-(3-Fluorophenyl)-3-isopropylimino-2-(2-methoxy-3-pyridyl)amino-3,5-dihydrophenazine], the melting point was in the range of 198 to 199 °C. The compound also returned a minimum inhibitory concentration (MIC) in the series with M. tuberculosis H37Rv [3] of 0.06 µg/mL (≈ 0.132 µM). The same compound showed an IC50 in series [4] of 2.65 µg/mL (≈ 5.84 µM). Also, in the series on Vero cells, the “SI (selectivity index IC50/MIC)” value worked out at 44.
`COc1ncccc1Nc1cc2nc3ccccc3n(-c3cccc(F)c3)c-2cc1=NC1CCOCC1` [Compound 9, 5-(3-Fluorophenyl)-3-(4-tetrahydropyranyl)imino-2-(2-methoxy-3-pyridyl)amino-3,5-dihydro-phenazine] had a melting point of 190 to 191 °C. Moreover, the minimal inhibitory concentration (MIC) in the series with M. tuberculosis H37Rv [3] was 0.061 µg/mL (≈ 0.123 µM). In series [4], this compound displayed a concentration for half-maximal inhibition (IC50) of 9.21 µg/mL (≈ 18.6 µM). In addition, in the series with Vero cells, the “SI (selectivity index IC50/MIC)” value is recorded as 151.
The corresponding values for `COc1ncccc1Nc1cc2nc3ccccc3n(-c3cccc(Cl)c3)c-2cc1=NC(C)C` [Compound 10, 5-(3-Chlorophenyl)-3-isopropylimino-2-(2-methoxy-3-pyridyl)amino-3,5-dihydrophenazine] are 215 to 217 °C, 0.25 µg/mL (≈ 0.532 µM), 5.1 µg/mL (≈ 10.9 µM) and 20.
For `COc1ncccc1Nc1cc2nc3ccccc3n(-c3cccc(Cl)c3)c-2cc1=NC1CC1` [Compound 11, 5-(3-Chlorophenyl)-3-cyclopropylimino-2-(2-methoxy-3-pyridyl)amino-3,5-dihydrophenazine], in that order: 211 to 214 °C, 0.03 µg/mL (≈ 0.0641 µM), 50.9 µg/mL (≈ 109 µM) and 1696.
`COc1ncccc1Nc1cc2nc3ccccc3n(-c3cccc(Cl)c3)c-2cc1=NC1CCC1` [Compound 12, 5-(3-Chlorophenyl)-3-cyclobutylimino-2-(2-methoxy-3-pyridyl)amino-3,5-dihydrophenazine] registered a melting point of 205 to 208 °C. The compound also showed a minimum inhibitory concentration (MIC) against M. tuberculosis H37Rv [3] of 0.06 µg/mL (≈ 0.124 µM). For the same compound, the 50% inhibitory concentration (IC50) in series [4] was greater than 64 µg/mL.
Compound `COc1ncccc1Nc1cc2nc3ccccc3n(-c3cccc(Cl)c3)c-2cc1=NC1CCCCC1` [Compound 13, 5-(3-Chlorophenyl)-3-cyclohexylimino-2-(2-methoxy-3-pyridyl)amino-3,5-dihydrophenazine] displayed a melting point of 197 to 201 °C. This compound came in with an MIC in the series on M. tuberculosis H37Rv [3] of 0.057 µg/mL (≈ 0.112 µM). In series [4], this compound came in with a concentration for half-maximal inhibition (IC50) of 53.3 µg/mL (≈ 104 µM). In addition, the “SI (selectivity index IC50/MIC)” value with Vero cells amounted to 934.
`COc1ncccc1Nc1cc2nc3ccccc3n(-c3cccc(Cl)c3)c-2cc1=NC1CCOCC1` [Compound 14, 5-(3-Chlorophenyl)-3-(4-tetrahydropyranyl)imino-2-(2-methoxy-3-pyridyl)amino-3,5-dihydrophenazine] gave a melting point of 203 to 206 °C. For the same compound, 0.025 µg/mL (≈ 0.0488 µM) was the least that counted as inhibitory in the series with M. tuberculosis H37Rv [3] (MIC). In addition, the midpoint of inhibition in series [4], the IC50, lay at 23.4 µg/mL (≈ 45.7 µM). Moreover, in the series with Vero cells, the “SI (selectivity index IC50/MIC)” value came to 936.
For the compound `COc1ncccc1Nc1cc2nc3ccccc3n(-c3ccc(F)c(F)c3)c-2cc1=NC(C)C` [Compound 15, 5-(3,4-Difluorophenyl)-3-isopropylimino-2-(2-methoxy-3-pyridyl)amino-3,5-dihydrophenazine], in series [1], the AUC(0-t) was 21200 ng·h/mL, the concentration peaked (Cmax) at 1840 ng/mL, the Tmax was 2 h and the half-life was 13.8 h. In the series on M. tuberculosis H37Rv [2], this compound had a logCFU/lung of 4.56 ± 0.38. Further, the “Efficacy in mouse model (in words)” value with M. tuberculosis H37Rv [2] (setting [7]) was “excellent efficacy”. The “Reduction of bacterial burden in the lungs as compared to the untreated control group” value in the series with M. tuberculosis H37Rv [2] (mouse model infected by M. tuberculosis H37Rv, lungs) is listed as 3.8 logs colony forming units (CFU). In the series on M. tuberculosis H37Rv [3], the minimum inhibitory concentration (MIC) was found to be 0.066 µg/mL (≈ 0.14 µM). In series [5], the “Discoloration of the ears, internal organs and fat tissues of the mice” value is “less intense”. Moreover, in series [6], the “Safety in mice (in words)” value is recorded as “good safety” and the “Number of animals that survived/Total number of animals” value is 5/5. Besides, the IC50 in series [4] was greater than 64 µg/mL.
For the compound `COc1ncccc1Nc1cc2nc3ccccc3n(-c3ccc(F)c(F)c3)c-2cc1=NC1CC1` [Compound 16, 5-(3,4-Difluorophenyl)-3-cyclopropylimino-2-(2-methoxy-3-pyridyl)amino-3,5-dihydrophenazine], the melting point is 213 to 214 °C. Further, the MIC in the series on M. tuberculosis H37Rv [3] amounted to 0.014 µg/mL (≈ 0.0298 µM). Besides, the 50% inhibitory concentration (IC50) in series [4] turned out to be 25.5 µg/mL (≈ 54.3 µM). Besides, the “SI (selectivity index IC50/MIC)” value in the series on Vero cells came to 1822.
For `COc1ncccc1Nc1cc2nc3ccccc3n(-c3ccc(F)c(F)c3)c-2cc1=NC1CCC1` [Compound 17, 5-(3,4-Difluorophenyl)-3-cyclobutylimino-2-(2-methoxy-3-pyridyl)amino-3,5-dihydrophenazine], the melting point was 200 to 201 °C. Further, in the series with M. tuberculosis H37Rv [3], the minimal inhibitory concentration (MIC) was 0.04 µg/mL (≈ 0.0827 µM). The 50% inhibitory concentration (IC50) in series [4] is greater than 64 µg/mL.
`COc1ncccc1Nc1cc2nc3ccccc3n(-c3ccc(F)c(F)c3)c-2cc1=NC1CCCCC1` [Compound 18, 5-(3,4-Difluorophenyl)-3-cyclohexylimino-2-(2-methoxy-3-pyridyl)amino-3,5-dihydrophenazine] returned a melting point of 218 to 219 °C. In the series on M. tuberculosis H37Rv [3], this compound came in with a minimum inhibitory concentration (MIC) of 0.03 µg/mL (≈ 0.0586 µM). The IC50 in series [4] is greater than 64 µg/mL.
The corresponding values for `COc1ncccc1Nc1cc2nc3ccccc3n(-c3ccc(F)c(F)c3)c-2cc1=NC1CCOCC1` [Compound 19, 5-(3,4-Difluorophenyl)-3-(4-tetrahydropyranyl)imino-2-(2-methoxy-3-pyridyl)amino-3,5-dihydro-phenazine] are 255 to 256 °C, 0.067 µg/mL (≈ 0.13 µM) and greater than 64 µg/mL.
In turn, `COc1ncccc1Nc1cc2nc3ccccc3n(-c3ccc(F)c(F)c3)c-2cc1=NC1CCC(OC)CC1` (centres unmarked) [Compound 20, 5-(3,4-Difluorophenyl)-3-(4-methoxycyclohexyl)imino-2-(2-methoxy-3-pyridyl)amino-3,5-dihydro-phenazine] displayed a melting point of 214 to 215 °C. This compound also yielded an MIC in the series with M. tuberculosis H37Rv [3] of 0.056 µg/mL (≈ 0.103 µM). In series [4], this compound had an IC50 greater than 64 µg/mL.
`COc1ncccc1Nc1cc2nc3ccccc3n(-c3ccc(Cl)c(Cl)c3)c-2cc1=NC(C)C` [Compound 21, 5-(3,4-Dichlorophenyl)-3-isopropylimino-2-(2-methoxy-3-pyridyl)amino-3,5-dihydrophenazine]: the melting point lay within 245 to 247 °C. This compound also showed an MIC against M. tuberculosis H37Rv [3] of 0.099 µg/mL (≈ 0.196 µM). Besides, in series [4], the IC50 was greater than 64 µg/mL.
The compound `COc1ncccc1Nc1cc2nc3ccccc3n(-c3ccc(Cl)c(Cl)c3)c-2cc1=NC1CC1` [Compound 22, 5-(3,4-Dichlorophenyl)-3-cyclopropylimino-2-(2-methoxy-3-pyridyl)amino-3,5-dihydrophenazine] gave a logCFU/lung in the series with M. tuberculosis H37Rv [2] of 8.06 ± 0.13. The “Efficacy in mouse model (in words)” value in the series with M. tuberculosis H37Rv [2] (setting [7]) is on record as “failed to display efficacy”. This compound also came in with a minimum inhibitory concentration (MIC) against M. tuberculosis H37Rv [3] of 0.025 µg/mL (≈ 0.0498 µM). For the same compound, in series [6], the “Safety in mice (in words)” value is “good safety” and the “Number of animals that survived/Total number of animals” value is 6/6. In addition, the half-inhibitory concentration (IC50) in series [4] is greater than 64 µg/mL.
The compound `COc1ncccc1Nc1cc2nc3ccccc3n(-c3ccc(Cl)c(Cl)c3)c-2cc1=NC1CCC1` [Compound 23, 5-(3,4-Dichlorophenyl)-3-cyclobutylimino-2-(2-methoxy-3-pyridyl)amino-3,5-dihydrophenazine] displayed a melting point of 216 to 219 °C. In addition, 0.06 µg/mL (≈ 0.116 µM) was the least that counted as inhibitory in the series with M. tuberculosis H37Rv [3] (MIC). For the same compound, the IC50 in series [4] is greater than 64 µg/mL.
Compound `COc1ncccc1Nc1cc2nc3ccccc3n(-c3ccc(Cl)c(Cl)c3)c-2cc1=NC1CCOCC1` [Compound 24, 5-(3,4-Dichlorophenyl)-3-(4-tetrahydropyranyl)imino-2-(2-methoxy-3-pyridyl)amino-3,5-dihydro-phenazine] had a melting point of 232 to 233 °C. Moreover, in the series on M. tuberculosis H37Rv [3], inhibition of growth (MIC) required 0.08 µg/mL (≈ 0.146 µM). The IC50 in series [4] is greater than 64 µg/mL.
In turn, `COc1ncccc1Nc1cc2nc3ccccc3n(-c3ccc(Cl)c(Cl)c3)c-2cc1=NC1CCC(OC)CC1` (centres unmarked) [Compound 25, 5-(3,4-Dichlorophenyl)-3-(4-methoxycyclohexyl)imino-2-(2-methoxy-3-pyridyl)amino-3,5-dihydro-phenazine] returned a melting point of 215 to 217 °C. Further, it took 0.059 µg/mL (≈ 0.103 µM) to inhibit growth against M. tuberculosis H37Rv [3] (MIC). For the same compound, in series [4], the IC50 is greater than 64 µg/mL.
Take `COc1ncccc1Nc1cc2nc3ccccc3n(-c3ccc(F)cc3)c-2c/c1=N\C(C)C` [TBI-1004, reference compound]: the MIC against M. tuberculosis H37Rv [3] came out at 0.038 µg/mL (≈ 0.0838 µM). This compound also registered an IC50 in series [4] greater than 64 µg/mL.

The values above are taken from publication PMC6271099, “Synthesis and Biological Evaluation of Novel 2-Methoxypyridylamino-Substituted Riminophenazine Derivatives as Antituberculosis Agents” (Molecules, 2014).
